Activity calls are given as the source filed them. No rule for the calls is given here.
System: CCRIS mutagenicity, Ames/micronucleus/aberration tests
Assay: CCRIS mutagenicity studies

Measured: mutagenic call

COC(=O)Nc1nc2ccccc2[nH]1
active: End Point: IN VITRO MICRONUCLEUS, Test System: HUMAN PERIPHERAL LYMPHOCYTES, Metabolic Activation: NONE active; positive | End Point: IN VITRO MICRONUCLEUS, Test System: V79 CELLS, Metabolic Activation: NONE active; positive | End Point: In vitro micronucleus, Test System: Mouse lymphoma L5178Y cells, Metabolic Activation: None active; positive | End Point: In vivo micronucleus, Test System: Micronucleated, binucleated and multinucleated hepatocytes, Species: Mouse, Strain/Sex: ddY/Male, Route: Oral active; positive for micronucleated, binucleated and multinucleated cells when agent adm | Test System: AMES SALMONELLA TYPHIMURIUM, Strain/Indicator: TA97, Metabolic Activation: RAT, LIVER, S-9, PHENOBARBITAL AND BETA-NAPHTHOFLAVONE, Method: PREINCUBATION active; positive | Test System: AMES SALMONELLA TYPHIMURIUM, Strain/Indicator: TA98, Metabolic Activation: HAMSTER, LIVER, S-9, AROCLOR 1254 (10%), Method: PREINCUBATION active; positive | Test System: AMES SALMONELLA TYPHIMURIUM, Strain/Indicator: TA98, Metabolic Activation: RAT, LIVER, S-9, AROCLOR 1254 (10%), Method: PREINCUBATION active; positive | Test System: AMES SALMONELLA TYPHIMURIUM, Strain/Indicator: TA98, Metabolic Activation: RAT, LIVER, S-9, PHENOBARBITAL AND BETA-NAPHTHOFLAVONE, Method: PREINCUBATION active; positive | Test System: AMES SALMONELLA TYPHIMURIUM, Strain/Indicator: TA98, Metabolic Activation: RAT, LIVER, S-9, PHENOBARBITAL AND BETA-NAPHTHOFLAVONE, Method: STANDARD PLATE active; positive | Test System: AMES SALMONELLA TYPHIMURIUM, Strain/Indicator: TA1537, Metabolic Activation: HAMSTER, LIVER, S-9, AROCLOR 1254 (10%), Method: PREINCUBATION active; positive | Test System: AMES SALMONELLA TYPHIMURIUM, Strain/Indicator: TA1537, Metabolic Activation: RAT, LIVER, S-9, AROCLOR 1254 (10%), Method: PREINCUBATION active; positive | Test System: AMES SALMONELLA TYPHIMURIUM, Strain/Indicator: TA1537, Metabolic Activation: RAT, LIVER, S-9, PHENOBARBITAL AND BETA-NAPHTHOFLAVONE, Method: PREINCUBATION active; positive | Test System: AMES SALMONELLA TYPHIMURIUM, Strain/Indicator: TA1538, Metabolic Activation: RAT, LIVER, S-9, PHENOBARBITAL AND BETA-NAPHTHOFLAVONE, Method: PREINCUBATION active; positive | Test System: AMES SALMONELLA TYPHIMURIUM, Strain/Indicator: TA1538, Metabolic Activation: RAT, LIVER, S-9, PHENOBARBITAL AND BETA-NAPHTHOFLAVONE, Method: STANDARD PLATE active; positive | Test System: Mouse lymphoma, Strain/Indicator: L5178Y (tk+/tk-)/Trifluorothymidine, Metabolic Activation: None, Method: Microtiter active; positive
inactive: End Point: IN VITRO CHROMOSOMAL ABERRATIONS, Test System: HUMAN PERIPHERAL LYMPHOCYTES, Metabolic Activation: RAT, LIVER, S-9, AROCLOR 1254 inactive; negative | Test System: AMES SALMONELLA TYPHIMURIUM, Strain/Indicator: TA97, Metabolic Activation: NONE, Method: PREINCUBATION inactive; negative | Test System: AMES SALMONELLA TYPHIMURIUM, Strain/Indicator: TA97, Metabolic Activation: NONE, Method: STANDARD PLATE inactive; negative | Test System: AMES SALMONELLA TYPHIMURIUM, Strain/Indicator: TA97, Metabolic Activation: RAT, LIVER, S-9, PHENOBARBITAL AND BETA-NAPHTHOFLAVONE, Method: STANDARD PLATE inactive; negative | Test System: AMES SALMONELLA TYPHIMURIUM, Strain/Indicator: TA97A, Metabolic Activation: NONE, Method: STANDARD PLATE inactive; negative | Test System: AMES SALMONELLA TYPHIMURIUM, Strain/Indicator: TA97A, Metabolic Activation: PLANT, HOMOGENATE, S-14, Method: STANDARD PLATE inactive; negative | Test System: AMES SALMONELLA TYPHIMURIUM, Strain/Indicator: TA97A, Metabolic Activation: S-9, Method: STANDARD PLATE inactive; negative | Test System: AMES SALMONELLA TYPHIMURIUM, Strain/Indicator: TA98, Metabolic Activation: NONE, Method: PREINCUBATION inactive; negative | Test System: AMES SALMONELLA TYPHIMURIUM, Strain/Indicator: TA98, Metabolic Activation: PLANT, HOMOGENATE, S-14, Method: STANDARD PLATE inactive; negative | Test System: AMES SALMONELLA TYPHIMURIUM, Strain/Indicator: TA98, Metabolic Activation: RAT, LIVER, S-9, PHENOBARBITONE, Method: PREINCUBATION inactive; negative | Test System: AMES SALMONELLA TYPHIMURIUM, Strain/Indicator: TA98, Metabolic Activation: S-9, Method: STANDARD PLATE inactive; negative | Test System: AMES SALMONELLA TYPHIMURIUM, Strain/Indicator: TA100, Metabolic Activation: HAMSTER, LIVER, S-9, AROCLOR 1254 (10%), Method: PREINCUBATION inactive; negative | Test System: AMES SALMONELLA TYPHIMURIUM, Strain/Indicator: TA100, Metabolic Activation: NONE, Method: PREINCUBATION inactive; negative | Test System: AMES SALMONELLA TYPHIMURIUM, Strain/Indicator: TA100, Metabolic Activation: PLANT, HOMOGENATE, S-14, Method: STANDARD PLATE inactive; negative | Test System: AMES SALMONELLA TYPHIMURIUM, Strain/Indicator: TA100, Metabolic Activation: RAT, LIVER, S-9, AROCLOR 1254 (10%), Method: PREINCUBATION inactive; negative | Test System: AMES SALMONELLA TYPHIMURIUM, Strain/Indicator: TA100, Metabolic Activation: RAT, LIVER, S-9, AROCLOR 1254, Method: STANDARD PLATE inactive; negative | Test System: AMES SALMONELLA TYPHIMURIUM, Strain/Indicator: TA100, Metabolic Activation: RAT, LIVER, S-9, PHENOBARBITAL AND BETA-NAPHTHOFLAVONE, Method: PREINCUBATION inactive; negative | Test System: AMES SALMONELLA TYPHIMURIUM, Strain/Indicator: TA100, Metabolic Activation: RAT, LIVER, S-9, PHENOBARBITAL AND BETA-NAPHTHOFLAVONE, Method: STANDARD PLATE inactive; negative | Test System: AMES SALMONELLA TYPHIMURIUM, Strain/Indicator: TA100, Metabolic Activation: RAT, LIVER, S-9, PHENOBARBITONE, Method: PREINCUBATION inactive; negative | Test System: AMES SALMONELLA TYPHIMURIUM, Strain/Indicator: TA100, Metabolic Activation: S-9, Method: STANDARD PLATE inactive; negative | Test System: AMES SALMONELLA TYPHIMURIUM, Strain/Indicator: TA102, Metabolic Activation: NONE, Method: PREINCUBATION inactive; negative | Test System: AMES SALMONELLA TYPHIMURIUM, Strain/Indicator: TA102, Metabolic Activation: NONE, Method: STANDARD PLATE inactive; negative | Test System: AMES SALMONELLA TYPHIMURIUM, Strain/Indicator: TA102, Metabolic Activation: RAT, LIVER, S-9, PHENOBARBITAL AND BETA-NAPHTHOFLAVONE, Method: PREINCUBATION inactive; negative | Test System: AMES SALMONELLA TYPHIMURIUM, Strain/Indicator: TA102, Metabolic Activation: RAT, LIVER, S-9, PHENOBARBITAL AND BETA-NAPHTHOFLAVONE, Method: STANDARD PLATE inactive; negative | Test System: AMES SALMONELLA TYPHIMURIUM, Strain/Indicator: TA1535, Metabolic Activation: HAMSTER, LIVER, S-9, AROCLOR 1254 (10%), Method: PREINCUBATION inactive; negative | Test System: AMES SALMONELLA TYPHIMURIUM, Strain/Indicator: TA1535, Metabolic Activation: NONE, Method: PREINCUBATION inactive; negative | Test System: AMES SALMONELLA TYPHIMURIUM, Strain/Indicator: TA1535, Metabolic Activation: PLANT, HOMOGENATE, S-14, Method: STANDARD PLATE inactive; negative | Test System: AMES SALMONELLA TYPHIMURIUM, Strain/Indicator: TA1535, Metabolic Activation: RAT, LIVER, S-9, AROCLOR 1254 (10%), Method: PREINCUBATION inactive; negative | Test System: AMES SALMONELLA TYPHIMURIUM, Strain/Indicator: TA1535, Metabolic Activation: RAT, LIVER, S-9, AROCLOR 1254, Method: STANDARD PLATE inactive; negative | Test System: AMES SALMONELLA TYPHIMURIUM, Strain/Indicator: TA1535, Metabolic Activation: RAT, LIVER, S-9, PHENOBARBITAL AND BETA-NAPHTHOFLAVONE, Method: PREINCUBATION inactive; negative | Test System: AMES SALMONELLA TYPHIMURIUM, Strain/Indicator: TA1535, Metabolic Activation: RAT, LIVER, S-9, PHENOBARBITAL AND BETA-NAPHTHOFLAVONE, Method: STANDARD PLATE inactive; negative | Test System: AMES SALMONELLA TYPHIMURIUM, Strain/Indicator: TA1535, Metabolic Activation: S-9, Method: STANDARD PLATE inactive; negative | Test System: AMES SALMONELLA TYPHIMURIUM, Strain/Indicator: TA1537, Metabolic Activation: NONE, Method: PREINCUBATION inactive; negative | Test System: AMES SALMONELLA TYPHIMURIUM, Strain/Indicator: TA1537, Metabolic Activation: RAT, LIVER, S-9, AROCLOR 1254, Method: STANDARD PLATE inactive; negative | Test System: AMES SALMONELLA TYPHIMURIUM, Strain/Indicator: TA1537, Metabolic Activation: RAT, LIVER, S-9, PHENOBARBITAL AND BETA-NAPHTHOFLAVONE, Method: STANDARD PLATE inactive; negative | Test System: AMES SALMONELLA TYPHIMURIUM, Strain/Indicator: TA1538, Metabolic Activation: NONE, Method: PREINCUBATION inactive; negative | Test System: AMES SALMONELLA TYPHIMURIUM, Strain/Indicator: TA1538, Metabolic Activation: NONE, Method: STANDARD PLATE inactive; negative | Test System: AMES SALMONELLA TYPHIMURIUM, Strain/Indicator: TA1538, Metabolic Activation: RAT, LIVER, S-9, AROCLOR 1254, Method: STANDARD PLATE inactive; negative

— PubChem BioAssay AID1259407 (Chemical Carcinogenesis Research Information System (CCRIS), 2018)
